Measurements taken from patent US8530512B2, “Broad spectrum gram-positive antimicrobials and anthelmintics with efficacy against drug-resistant strains and Mycobacterium species” (priority 2004, dated 2013).
Converted amounts (≈) assume the structure as drawn.

Assays:
[1] = test system: Staphylococcus aureus ATCC 29213; assay: microbe, parasite or virus in culture; format: cell-based; settings: for MIC: Staphylococcus aureus, ATCC29213, per-compound listing, Example 6, read-out: MIC S. aureus
[2] = test system: Staphylococcus aureus MRSA MC-1; assay: microbe, parasite or virus in culture; format: cell-based; settings: for MIC: Staphylococcus aureus, MRSA, read-out: MIC MRSA
[3] = test system: Enterococcus faecium VRE 1; assay: organism not typed; format: cell-based; settings: for MIC E. faecium VRE 1, G+: Table 3; for MIC: read-out: MIC VRE
Streptococcus pyogenes = assay: microbe, parasite or virus in culture; format: cell-based; settings: for MIC: Streptococcus pyogenes, per-compound listing, Example 6, read-out: MIC S. pyogenes; for MIC S. pyogenes, G+: Table 3
Bacillus cereus = assay: microbe, parasite or virus in culture; format: cell-based; settings: for MIC: Bacillus cereus, per-compound listing, Example 6, read-out: MIC B. cereus; for MIC B. cereus, G+ (anthrax surrogate): Table 3
M. smegmatis = assay: MIC assay; format: cell-based; settings: for MIC: Mycolicibacterium smegmatis, per-compound listing, Example 6, read-out: MIC M. smegmatis
C. elegans = assay: motility assay; format: in vivo; set-up: key to Movement score, 1/1600 / Movement score, 1/800 / Movement score, 1/400 / Movement score, 1/200 / Movement score, 1/100: normal (−); slow (+); very slow (++); not motile/paralyzed (+++); settings: for Movement score, 1/100: dilution 1/100 of stock (10.24 μg/μL; SK-03-92 1.024 μg/μL); for Movement score, 1/100 / Movement score, 1/200 / Movement score, 1/400 / Movement score, 1/800 / Movement score, 1/1600: Ive 1 ng/μL in all wells; for Movement score, 1/200: dilution 1/200 of stock (10.24 μg/μL; SK-03-92 1.024 μg/μL); for Movement score, 1/400: dilution 1/400 of stock (10.24 μg/μL; SK-03-92 1.024 μg/μL); for Movement score, 1/800: dilution 1/800 of stock (10.24 μg/μL; SK-03-92 1.024 μg/μL); for Movement score, 1/1600: dilution 1/1600 of stock (10.24 μg/μL; SK-03-92 1.024 μg/μL), overnight 20° C.; for effect on worms at the lowest concentrations tested: at least triplicate
C. elegans L1 larvae = assay: developmental assay; format: in vivo; set-up: key to Developmental score, 1/1600 / Developmental score, 1/800 / Developmental score, 1/400 / Developmental score, 1/200 / Developmental score, 1/100: dead (+++); distressed (++); slightly delayed (+); the same as M9-only untreated wells (−); settings: for Developmental score, 1/100: dilution 1/100; for Developmental score, 1/100 / Developmental score, 1/200 / Developmental score, 1/400 / Developmental score, 1/800 / Developmental score, 1/1600: after four days, Ive 1 ng/μL in each well; for Developmental score, 1/200: dilution 1/200; for Developmental score, 1/400: dilution 1/400; for Developmental score, 1/800: dilution 1/800; for Developmental score, 1/1600: dilution 1/1600
Mycobacterium avium = assay: MIC assay; format: cell-based; settings: Table 6
Mycobacterium chelonae = assay: MIC assay; format: cell-based; settings: Table 6
Mycobacterium fortuitum = assay: MIC assay; format: cell-based; settings: Table 6
[4] = test system: Mycobacterium intracellulare; assay: MIC assay; format: cell-based; settings: Table 6

Structure (SMILES) | MIC [1] | MIC [2] | MIC E. faecium VRE 1, G+ [3] | MIC [3] | MIC (Streptococcus pyogenes) | MIC S. pyogenes, G+ (Streptococcus pyogenes) | MIC (Bacillus cereus) | MIC B. cereus, G+ (anthrax surrogate) (Bacillus cereus) | MIC (M. smegmatis) | Movement score, 1/100 (C. elegans) | Movement score, 1/200 (C. elegans) | Movement score, 1/400 (C. elegans) | Movement score, 1/800 (C. elegans) | Movement score, 1/1600 (C. elegans) | effect on worms at the lowest concentrations tested (C. elegans) | Developmental score, 1/100 (C. elegans L1 larvae) | Developmental score, 1/200 (C. elegans L1 larvae) | Developmental score, 1/400 (C. elegans L1 larvae) | Developmental score, 1/800 (C. elegans L1 larvae) | Developmental score, 1/1600 (C. elegans L1 larvae) | other results
COc1cc(O)cc(/C=C/Oc2ccc(C)cc2)c1 [Compound A10, 4-Methylphenyl-E-(3-hydroxy-5-methoxy)-styryl ether] | 16 µg/mL (≈ 62.4 µM) | 32 µg/mL (≈ 125 µM) | 32 µg/mL (≈ 125 µM) | 32 µg/mL (≈ 125 µM) | 32 µg/mL (≈ 125 µM) | 32 µg/mL (≈ 125 µM) | 64 µg/mL (≈ 250 µM) | 64 µg/mL (≈ 250 µM) | > 128 µg/mL | +++ | +++ | +++ | ++ | + | reduced motility, paralysis, or death | +++ | +++ | ++ | − | − | 
COc1cc(O)cc(/C=C/c2ccsc2)c1 [CL-5, (E)-3-[2-(3-Hydroxy-5-methoxy)-vinyl]thiophene] | 16 µg/mL (≈ 68.9 µM) | 32 µg/mL (≈ 138 µM) | 32 µg/mL (≈ 138 µM) | 32 µg/mL (≈ 138 µM) | 4 µg/mL (≈ 17.2 µM) | 4 µg/mL (≈ 17.2 µM) | 32 µg/mL (≈ 138 µM) | 32 µg/mL (≈ 138 µM) | 128 µg/mL (≈ 551 µM) | +++ | +++ | +++ | +++ | ++ | reduced motility, paralysis, or death | +++ | +++ | +++ | +++ | + | effect on worms at the lowest concentration tested (most active) (C. elegans; lowest concentration tested): severe distress; effect at the two highest dilutions (C. elegans L1 larvae): death or delays in development
COc1cc(O)cc(/C=C/Oc2cccc(C)c2)c1 [Compound A9, 3-Methylphenyl-E-(3-hydroxy-5-methoxy)-styryl ether] | 16 µg/mL (≈ 62.4 µM) | 32 µg/mL (≈ 125 µM) | 32 µg/mL (≈ 125 µM) | 32 µg/mL (≈ 125 µM) | 32 µg/mL (≈ 125 µM) | 32 µg/mL (≈ 125 µM) | 32 µg/mL (≈ 125 µM) | 16 µg/mL (≈ 62.4 µM) | 64 µg/mL (≈ 250 µM) | +++ | +++ | ++ | ++ | + | reduced motility, paralysis, or death | +++ | +++ | +++ | − | − | 
COc1cc(O)cc(/C=C/Oc2cccc(OC)c2)c1 [Compound A8, 3-Methoxyphenyl-E-(3-hydroxy-5-methoxy)-styryl ether] | 32 µg/mL (≈ 118 µM) | 64 µg/mL (≈ 235 µM) | 64 µg/mL (≈ 235 µM) | 64 µg/mL (≈ 235 µM) | 16 µg/mL (≈ 58.8 µM) | 16 µg/mL (≈ 58.8 µM) | 64 µg/mL (≈ 235 µM) | 64 µg/mL (≈ 235 µM) | 128 µg/mL (≈ 470 µM) | +++ | ++ | ++ | + | + |  | +++ | +++ | − | − | − | 
COc1cc(O)cc(/C=C/c2cccs2)c1 [CL-6, (E)-2-[2-(3-Hydroxy-5-methoxy)-vinyl]thiophene] | 32 µg/mL (≈ 138 µM) | 32 µg/mL (≈ 138 µM) | 64 µg/mL (≈ 276 µM) | 64 µg/mL (≈ 276 µM) | 32 µg/mL (≈ 138 µM) | 32 µg/mL (≈ 138 µM) | 32 µg/mL (≈ 138 µM) | 32 µg/mL (≈ 138 µM) | 64 µg/mL (≈ 276 µM) | +++ | +++ | +++ | − | − |  |  |  |  |  |  | 
COc1ccc(O/C=C/c2cc(O)cc(OC)c2)cc1 [Compound A6, 4-Methoxyphenyl-E-(3-hydroxy-5methoxy)-styryl ether] | 32 µg/mL (≈ 118 µM) | 64 µg/mL (≈ 235 µM) | 64 µg/mL (≈ 235 µM) | 64 µg/mL (≈ 235 µM) | 32 µg/mL (≈ 118 µM) | 32 µg/mL (≈ 118 µM) | 64 µg/mL (≈ 235 µM) | 64 µg/mL (≈ 235 µM) | 128 µg/mL (≈ 470 µM) | +++ | +++ | ++ | + | − |  | +++ | +++ | + | − | − | 
COc1cc(O)cc(/C=C/Sc2ccccc2)c1 [CL-4, Phenyl-E-(3-hydroxy-5methoxy)-styryl thioether] | 16 µg/mL (≈ 61.9 µM) | 32 µg/mL (≈ 124 µM) | 32 µg/mL (≈ 124 µM) | 32 µg/mL (≈ 124 µM) | 8 µg/mL (≈ 31 µM) | 8 µg/mL (≈ 31 µM) | 16 µg/mL (≈ 61.9 µM) | 16 µg/mL (≈ 61.9 µM) | 128 µg/mL (≈ 495 µM) | +++ | +++ | ++ | + | − |  | +++ | +++ | +++ | − | − | 
N#Cc1cccc(/C=C/SC2=NCCS2)c1 [SK-04-72] |  |  |  |  |  |  |  |  |  |  |  |  |  |  |  |  |  |  |  |  | MIC S. aureus ATCC 29213 ([1]; Table 6): >512 µg/mL; MIC S. aureus MC-1 ([2]; Table 6): >512 µg/mL; MIC M. smegmatis (M. smegmatis; Table 6): 64 µg/mL (≈ 260 µM); MIC M. avium (Mycobacterium avium): 64 µg/mL (≈ 260 µM); MIC M. chelonae (Mycobacterium chelonae): 64 µg/mL (≈ 260 µM); MIC M. fortuitum (Mycobacterium fortuitum): 64 µg/mL (≈ 260 µM); MIC M. intracellulare [4]: 64 µg/mL (≈ 260 µM)
